Data taken from PubChem BioAssay AID330 (DTP/NCI, 2004).
Where “and” joins values, the source holds several entries; their conditions need not be identical. Equal entries are not always repeated. Toxic doses and inconclusive results are not listed. The calls were made as follows: active = survival T/C of 150% or more; inactive = T/C below 125% in these data.

System: P388 leukemia ip, CD2F1 mice, survival T/C
Assay: NCI In Vivo Anticancer Drug Screen. Data for tumor model P388 Leukemia (intraperitoneal) in CD2F1 (CDF1) mice
Conditions: endpoint: median survival time, higher = longer survival
Summary of the method: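 Mice carrying the transplanted tumor received test compound or vehicle. Survival was recorded in each group, and the value is the treated-group measurement divided by that of the vehicle-treated control group.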

[1] = dose: 100.0 mg/kg/injection, schedule: Q01DX001 (ip), vehicle: saline
[2] = dose: 200.0 mg/kg/injection, schedule: Q01DX001 (ip), vehicle: saline
[3] = dose: 400.0 mg/kg/injection, schedule: Q01DX001 (ip), vehicle: saline
[4] = dose: 6.25 mg/kg/injection, schedule: Q01DX005 (ip), vehicle: Klucel (hydroxypropylcellulose) (HPC)
[5] = dose: 12.5 mg/kg/injection, schedule: Q01DX005 (ip), vehicle: Klucel (hydroxypropylcellulose) (HPC)
[6] = dose: 50.0 mg/kg/injection, schedule: Q01DX009 (ip), vehicle: Klucel (hydroxypropylcellulose) (HPC)
[7] = dose: 100.0 mg/kg/injection, schedule: Q01DX009 (ip), vehicle: Klucel (hydroxypropylcellulose) (HPC)
[8] = dose: 200.0 mg/kg/injection, schedule: Q01DX009 (ip), vehicle: Klucel (hydroxypropylcellulose) (HPC)
[9] = dose: 50.0 mg/kg/injection, schedule: Q01DX005 (ip), vehicle: Klucel (hydroxypropylcellulose) (HPC)
[10] = dose: 50.0 mg/kg/injection, schedule: Q01DX005 (ip), vehicle: saline with Tween-80
[11] = dose: 100.0 mg/kg/injection, schedule: Q01DX005 (ip), vehicle: Klucel (hydroxypropylcellulose) (HPC)
[12] = dose: 100.0 mg/kg/injection, schedule: Q01DX005 (ip), vehicle: saline with Tween-80
[13] = dose: 200.0 mg/kg/injection, schedule: Q01DX005 (ip), vehicle: Klucel (hydroxypropylcellulose) (HPC)
[14] = dose: 200.0 mg/kg/injection, schedule: Q01DX005 (ip), vehicle: saline with Tween-80
[15] = dose: 12.5 mg/kg/injection, schedule: Q01DX005 (ip), vehicle: saline with Tween-80
[16] = dose: 25.0 mg/kg/injection, schedule: Q01DX005 (ip), vehicle: saline with Tween-80
[17] = dose: 50.0 mg/kg/injection, schedule: Q01DX009 (ip), vehicle: saline with Tween-80
[18] = dose: 100.0 mg/kg/injection, schedule: Q01DX009 (ip), vehicle: saline
[19] = dose: 200.0 mg/kg/injection, schedule: Q01DX009 (ip), vehicle: saline
[20] = dose: 400.0 mg/kg/injection, schedule: Q01DX009 (ip), vehicle: saline
[21] = dose: 100.0 mg/kg/injection, schedule: Q01DX009 (ip), vehicle: saline with Tween-80
[22] = dose: 200.0 mg/kg/injection, schedule: Q01DX009 (ip), vehicle: saline with Tween-80

Measured: T/C

COc1ccccc1NC(=O)C1=C(C)NC(C)=C(C(=O)Nc2ccccc2C)C1c1ccccc1 (centres undefined)
inactive: dose: 60.0 mg/kg/injection, schedule: Q01DX005 (ip), vehicle: saline with Tween-80 100 % of control | dose: 120.0 mg/kg/injection, schedule: Q01DX005 (ip), vehicle: saline with Tween-80 104 % of control | dose: 240.0 mg/kg/injection, schedule: Q01DX005 (ip), vehicle: saline with Tween-80 89 % of control

O=C(NN1CCOCC1)C(F)(F)F
inactive: [1] 100 % of control | [2] 99 % of control | [3] 99 % of control

CCCCN(CCCC)C(=N)c1ccccc1Cl
inactive: [4] 103 % of control | [5] 99 % of control

NN(CC(O)COc1ccccc1)C(=O)c1ccccc1O (centres undefined)
inactive: [6] 108 % of control | [7] 108 % of control | [8] 106 % of control

COc1cc2cccc(OC)c(=O)c2c(O)c1OC
inactive: [9] 86 % of control | [10] 99 % of control | [11] 88 % of control | [12] 95 % of control | [13] 88 % of control | [14] 91 % of control

CCOC(=O)C1C/C(=N\O)c2ccc(OC)c(OC)c2C1 (centres undefined)
inactive: dose: 25.0 mg/kg/injection, schedule: Q01DX009 (ip), vehicle: other 101 % of control | dose: 50.0 mg/kg/injection, schedule: Q01DX009 (ip), vehicle: other 91 % of control | dose: 100.0 mg/kg/injection, schedule: Q01DX009 (ip), vehicle: other 93 % of control | dose: 200.0 mg/kg/injection, schedule: Q01DX009 (ip), vehicle: other 97 % of control | dose: 400.0 mg/kg/injection, schedule: Q01DX009 (ip), vehicle: other 100 % of control

C=C/C(=C/CC(=O)O[C@@H]1CCC(C)(C)C(C=O)=C1C)Sc1ccccc1
inactive: dose: 50.0 mg/kg/injection, schedule: Q01DX001 (ip), vehicle: DMSO 92 % of control | dose: 100.0 mg/kg/injection, schedule: Q01DX001 (ip), vehicle: DMSO 92 % of control | dose: 200.0 mg/kg/injection, schedule: Q01DX001 (ip), vehicle: DMSO 92 % of control

Nc1cc2cccc[n+]2c2ccccc12
inactive: dose: 3.75 mg/kg/injection, schedule: Q01DX005 (ip), vehicle: saline 110 % of control | dose: 7.5 mg/kg/injection, schedule: Q01DX005 (ip), vehicle: saline 106 % of control | dose: 15.0 mg/kg/injection, schedule: Q01DX005 (ip), vehicle: saline 120 % of control

Cc1noc(NS(=O)(=O)c2ccc(N=c3c4ccccc4n(Cc4ccccc4)c4ccccc34)cc2)c1C
inactive: [10] 96 % of control | [12] 94 % of control | [14] 87 % of control

Cc1cc(C=C2C(=O)NC(=S)NC2=O)cc(C)c1O
inactive: [15] 101 % of control and 96 % of control and 97 % of control | [16] 105 % of control and 106 % of control and 118 % of control

CC(=O)O[C@@H]1[C@@H](O)[C@H]2O[C@@H]3C=C(C)CC[C@]3(CO)[C@]1(C)[C@@]21CO1
inactive: dose: 1.25 mg/kg/injection, schedule: Q01DX009 (ip), vehicle: saline with Tween-80 110 % of control and 120 % of control | dose: 2.5 mg/kg/injection, schedule: Q01DX009 (ip), vehicle: saline with Tween-80 118 % of control and 121 % of control | dose: 5.0 mg/kg/injection, schedule: Q01DX009 (ip), vehicle: saline with Tween-80 120 % of control | dose: 20.0 mg/kg/injection, schedule: Q01DX009 (ip), vehicle: saline with Tween-80 93 % of control

C[n+]1c(/C=C/c2ccccc2Cl)ccc2ccccc21
inactive: dose: 12.5 mg/kg/injection, schedule: Q01DX009 (ip), vehicle: saline with Tween-80 94 % of control | dose: 25.0 mg/kg/injection, schedule: Q01DX009 (ip), vehicle: saline with Tween-80 100 % of control | [17] 94 % of control

Oc1ccccc1C(Nc1nc2ccccc2s1)c1ccc2cccnc2c1O (centres undefined)
inactive: [18] 90 % of control | dose: 100.0 mg/kg/injection, schedule: Q04DX003 (ip), vehicle: saline 95 % of control | [19] 100 % of control | dose: 200.0 mg/kg/injection, schedule: Q04DX003 (ip), vehicle: saline 91 % of control | [20] 90 % of control | dose: 400.0 mg/kg/injection, schedule: Q04DX003 (ip), vehicle: saline 91 % of control

CC1=C(OS(C)(=O)=O)CCC1=O
inactive: [15] 104 % of control | [16] 103 % of control | [10] 103 % of control and 107 % of control | [12] 106 % of control

CC(=O)N1CCc2cc(N)ccc21
inactive: [17] 95 % of control | [21] 86 % of control | [22] 90 % of control

CCO/C=N/c1[nH]c(C)c(C)c1C#N
inactive: [6] 93 % of control | [7] 100 % of control | [8] 105 % of control

CCOC(=O)NC(C(=O)N(C(=O)NC1CCCCC1)C1CCCCC1)C(C)C (centres undefined)
inactive: [9] 100 % of control | [11] 95 % of control | [13] 90 % of control

CCCCCN(CCCCC)CC(O)c1ccc(Cl)c2ccccc12 (centres undefined)
inactive: [10] 103 % of control | [12] 106 % of control | [14] 103 % of control

COc1cc([N+](=O)[O-])ccc1NC(=O)Nc1nccs1
inactive: [17] 93 % of control | [21] 101 % of control | [22] 99 % of control

COc1ccc2c(c1OC(=O)NCCCl)-c1cccc3c1C(C2)N(CCOC(=O)NCCCl)CC3 (centres undefined)
inactive: dose: 6.25 mg/kg/injection, schedule: Q04DX003 (ip), vehicle: saline + alcohol 109 % of control | dose: 12.5 mg/kg/injection, schedule: Q04DX003 (ip), vehicle: saline + alcohol 102 % of control | dose: 25.0 mg/kg/injection, schedule: Q04DX003 (ip), vehicle: saline + alcohol 96 % of control | dose: 50.0 mg/kg/injection, schedule: Q04DX003 (ip), vehicle: saline + alcohol 106 % of control | dose: 100.0 mg/kg/injection, schedule: Q04DX003 (ip), vehicle: saline + alcohol 98 % of control | dose: 200.0 mg/kg/injection, schedule: Q04DX003 (ip), vehicle: saline + alcohol 105 % of control

C#CC(C)C(C(C)=O)C(C)=O.[C-]#[O+].[C-]#[O+].[C-]#[O+].[C-]#[O+].[C-]#[O+].[C-]#[O+].[Co].[Co] (centres undefined)
inactive: dose: 3.12 mg/kg/injection, schedule: Q01DX005 (ip), vehicle: Klucel (hydroxypropylcellulose) (HPC) 104 % of control | [4] 94 % of control | [5] 111 % of control

OCC(O)C(O)C(O)C(O)c1nn[nH]n1 (centres undefined)
inactive: [1] 95 % of control | [2] 101 % of control | [3] 92 % of control

C/C(N=NC(=S)N1CCN(c2ccccc2)CC1)=C1\C=CC=CN1O
inactive: [10] 103 % of control | [12] 101 % of control | [14] 103 % of control

NC(=O)Nc1ccccc1O
inactive: [21] 98 % of control | [22] 117 % of control | dose: 400.0 mg/kg/injection, schedule: Q01DX009 (ip), vehicle: saline with Tween-80 107 % of control

COc1cc2ccc(/C=C/C(=O)c3ccc4c(c3)OCO4)cc2cc1OC
inactive: dose: 25.0 mg/kg/injection, schedule: Q01DX009 (ip), vehicle: water 103 % of control | dose: 50.0 mg/kg/injection, schedule: Q01DX009 (ip), vehicle: water 98 % of control | dose: 100.0 mg/kg/injection, schedule: Q01DX009 (ip), vehicle: water 97 % of control | dose: 200.0 mg/kg/injection, schedule: Q01DX009 (ip), vehicle: water 98 % of control | dose: 400.0 mg/kg/injection, schedule: Q01DX009 (ip), vehicle: water 91 % of control

Cc1cc(C(=O)NN)c(C#N)c(=O)[nH]1
inactive: [18] 100 % of control | [19] 109 % of control | [20] 90 % of control

C=CCCCCC1CC2CCCCN2O1 (centres undefined)
inactive: [6] 94 % of control | [7] 103 % of control | [8] 113 % of control
